Results from ChEMBL document CHEMBL5223128, “Biphenyl-based small molecule inhibitors: Novel cancer immunotherapeutic agents targeting PD-1/PD-L1 interaction” (Bioorg Med Chem, 2022).

Molecular target: T1, Programmed cell death protein 1/Programmed cell death 1 ligand 1 (Homo sapiens, UniProt Q9NZQ7)
Assay: Inhibition of human PD-1/PDL1 protein-protein interaction
Type: protein-complex assay

T1 sequence (Q15116 whole entry): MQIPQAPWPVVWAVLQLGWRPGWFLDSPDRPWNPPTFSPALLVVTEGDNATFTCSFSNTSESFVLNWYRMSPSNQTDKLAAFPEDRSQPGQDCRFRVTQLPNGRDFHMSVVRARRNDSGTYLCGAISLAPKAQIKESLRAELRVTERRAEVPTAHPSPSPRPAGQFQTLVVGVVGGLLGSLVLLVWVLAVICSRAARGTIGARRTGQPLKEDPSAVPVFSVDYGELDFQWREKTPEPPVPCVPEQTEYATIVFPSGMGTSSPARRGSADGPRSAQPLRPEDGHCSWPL
T1 sequence (Q9NZQ7 whole entry): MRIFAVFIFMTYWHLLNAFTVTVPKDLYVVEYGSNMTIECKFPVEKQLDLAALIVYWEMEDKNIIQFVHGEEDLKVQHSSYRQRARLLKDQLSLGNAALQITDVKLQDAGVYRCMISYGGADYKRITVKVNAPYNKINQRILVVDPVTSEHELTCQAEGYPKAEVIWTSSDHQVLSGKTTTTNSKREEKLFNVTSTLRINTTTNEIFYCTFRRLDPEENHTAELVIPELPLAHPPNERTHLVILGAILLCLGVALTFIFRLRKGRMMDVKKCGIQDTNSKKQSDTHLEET

Structure (SMILES)	IC50 [nM]
COc1cc(OCc2cccc(-c3ccccc3)c2C)cc(OC)c1CCCC1CC(=O)N1 (configuration not stated)	18

Molecular target: Programmed cell death 1 ligand 1 (Homo sapiens, UniProt Q9NZQ7)
Sequence (Q9NZQ7 whole entry): as above
Assay: Binding affinity to human PDL1 assessed as dissociation constant by MST method

Structure (SMILES)	Kd [nM]
Cc1c(-c2ccccc2)cccc1N1C(=O)c2cc(CN[C@H](C(=O)O)C(C)O)c(OCc3cccc(C#N)c3)cc2C1=O (some centres not stated)	24.4

Molecular target: T1, Programmed cell death protein 1/Programmed cell death 1 ligand 1
Assay: Inhibition of human PD-1/PDL1 protein-protein interaction by luminescence proximity homogeneous assay
Type: protein-complex assay

Structure (SMILES)	IC50 [nM]
Cc1c(COc2cc(OCc3ccc(OC(F)(F)F)cc3)c(N3CCCCC3C(=O)O)cc2Cl)cccc1-c1ccccc1 (configuration not stated)	1500

Molecular target: T1, Programmed cell death protein 1/Programmed cell death 1 ligand 1
Assay: Inhibition of human PD-1/PDL1 protein-protein interaction by HTRF assay
Type: protein-complex assay

Structure (SMILES)	IC50 [nM]
Cc1c(-c2ccccc2)cccc1-c1nc2cc(CN3CCCC[C@H]3C(=O)O)c(OCC#N)cc2o1	≤ 10
Cc1c(-c2cccc(CC(N)=O)c2)cccc1-c1nc2c(s1)CNCC2	≤ 100
Cc1c(COc2cc(OCc3ccc(OC(F)(F)F)cc3)c(N3CCCCC3C(=O)O)cc2Cl)cccc1-c1ccccc1 (configuration not stated)	56.6
Cc1c(C2=CCCCC2)cccc1-c1nc2c(s1)CNCC2	≤ 100
CCOc1cccc(-c2cccc(-c3nc4c(s3)CNCC4)c2C)c1	≤ 100
Cc1c(-c2nc3cc(CNCCO)c(OCC#N)cc3o2)cccc1-c1ccccc1F	≤ 10
N#Cc1c(NC(=O)c2nc3c(s2)CNCC3)cccc1-c1c(F)cccc1F	≤ 100
N#Cc1c(NC(=O)c2ccc(CNCCO)cn2)cccc1-c1ccccc1	≤ 10
Cc1c(-c2ccccc2)cccc1-c1nc2cc(CNCCO)nc(C)n2n1	≤ 100
N#Cc1c(NC(=O)c2nc3c(s2)CNCC3)cccc1-c1ccc2c(c1)OCC2	≤ 100
COc1cc(OC)c(F)c(-c2cccc(-c3nc4c(s3)CNCC4)c2C)c1F	≤ 100
Cc1c(-c2ccccc2)cccc1-c1nc2cc(CNCCO)ccn2n1	≤ 100
Cc1c(-c2ccccc2)cccc1-c1nc2c(s1)CN(CCCC(=O)O)CC2	≤ 100
Cc1c(Nc2nccc3cc(CNCCO)cnc23)cccc1-c1ccccc1	≤ 10
Cc1cc(C(=O)Nc2cccc(-c3ccccc3)c2C)ncc1CNCCO	≤ 10
N#CCc1cc(CNCCO)cn2nc(-c3cccc(-c4ccc5c(c4)OCCO5)c3C#N)nc12	≤ 100
Cc1c(-c2ccccc2)cccc1-c1cn2nc(CNCCO)cnc2n1	≤ 100
N#Cc1c(Nc2nccc3cc(CNCCO)cnc23)cccc1-c1ccc2c(c1)OCCO2	≤ 10
Cc1cc(C(=O)Nc2cccc(-c3ccccc3)c2C)ncc1CN1CCCC[C@H]1C(=O)O	≤ 10
Cn1c(C(=O)Nc2cccc(-c3ccc4c(c3)OCCO4)c2C#N)nc2c1CCNC2	≤ 100
Cc1c(-c2ccccc2)cccc1-c1nc2cc(CN3CCCC[C@H]3C(=O)O)c(OCCCC#N)cc2o1	≤ 10
Cc1c(NC(=O)c2nc3c(s2)CNCC3)cc(F)cc1-c1ccc2c(c1)OCCO2	≤ 100
Cc1c(Nc2nccc3cc(CNCCO)cnc23)cccc1C1=CCCCC1	≤ 10
Cc1c(-c2ccccc2)cccc1-c1nc2c(o1)CNCC2	≤ 100

Structure (SMILES)	IC50 [nM]
Cc1c(-c2ccc3c(c2)OCCO3)cccc1-c1nc2cc(CNCCO)cc(C)c2o1	≤ 10
Cc1c(-c2ccc3c(c2)OCCO3)cccc1-c1nc2cc(CN3CCCC[C@H]3C(=O)O)c(OCC#N)cc2o1	≤ 10
Cc1c(-c2ccccc2)cccc1-c1nc2c(Cl)cc(CNCCO)cn2n1	≤ 100
Cc1c(-c2ccccc2)ccnc1-c1nc2c(s1)CN(C1CCC(C(=O)O)CC1)CC2 (configuration not stated)	≤ 100
COc1cc(OCc2cccc(-c3ccccc3)c2C)cc(OC)c1CCCC1CC(=O)N1 (configuration not stated)	22
COc1c(CNCCO)cnc2c(Nc3cccc(-c4ccccc4)c3C)nccc12	≤ 10
Cn1ncc2c(-c3cccc(NC(=O)c4nc5c(s4)CNCC5)c3C#N)cccc21	≤ 100
COc1cccc(-c2cccc(NC(=O)c3cn4c(n3)CNCC4)c2C#N)c1F	≤ 100
N#Cc1c(NC(=O)c2nc3c(s2)CNCC3)cccc1-c1ccccc1Cl	≤ 100
Cc1c(-c2cccc(C(N)=O)c2)cccc1-c1nc2c(s1)CNCC2	≤ 100
Cc1c(-c2ccccc2)ccnc1-c1nc2c(s1)CNCC2	≤ 100
Cc1c(-c2ccccc2)cccc1-c1nc2cc(CNCCO)ccc2o1	≤ 10
Cc1c(NC(=O)c2nc3c(s2)CN(CCO)CC3)cccc1-c1ccccc1	≤ 100
Cc1c(-c2ccccc2)cccc1-c1cn2cc(CNCCO)ncc2n1	≤ 100
COc1cccc(-c2cccc(-c3nc4c(s3)CNCC4)c2C)c1	≤ 100
O=C(Nc1cccc(-c2ccccc2)c1Cl)c1nc2c(s1)CNCC2	≤ 100
COc1cc(OC)cc(-c2cccc(-c3nc4c(s3)CNCC4)c2C)c1	≤ 100
N#Cc1c(NC(=O)c2nc3c(s2)CNCC3)cccc1-c1ccccc1F	≤ 100
Cn1c(C(=O)Nc2cccc(-c3ccc4c(c3)OCCO4)c2C#N)nc2c1CCN(CCO)C2	≤ 100
Cc1c(-c2ccccc2)cccc1-c1nc2cc(CNCCO)c(OCC#N)cc2o1	≤ 10
Cc1c(-c2ccccc2)cccc1-c1nc2c(s1)CN(CCO)CC2	≤ 100
Cc1c(-c2ccccc2)cccc1-n1cc2c(n1)CNCC2	≤ 100
Cc1c(Nc2nccc3c(CN4CCCCC4C(=O)O)ccnc23)cccc1-c1ccccc1 (configuration not stated)	≤ 10
N#Cc1c(NC(=O)c2ccc(CNCCO)cn2)cccc1-c1ccc2c(c1)OCCO2	≤ 10

Structure (SMILES)	IC50 [nM]
COc1cc(F)cc(-c2cccc(NC(=O)c3nc4c(s3)CNCC4)c2C#N)c1	≤ 100
COc1cccc(-c2cccc(NC(=O)c3nc4c(n3C)CCN(CCO)C4)c2C#N)c1F	≤ 100
COc1cc2oc(-c3cccc(-c4ccccc4)c3C)nc2cc1CNCCO	≤ 10
Cc1c(NC(=O)c2nc3c(s2)CNCC3)cccc1-c1ccc2c(c1)OCCO2	≤ 100
Cc1c(Nc2nccc3c(CNCCO)ccnc23)cccc1-c1ccc2c(c1)OCCO2	≤ 10
Cc1c(-c2ccccc2)cccc1-c1nc2c(CC#N)cc(CNCCO)cn2n1	≤ 100
COc1cccc(-c2cccc(NC(=O)c3nc4c(s3)CNCC4)c2Cl)c1F	≤ 100
N#Cc1c(Nc2nccc3nc(CNCCO)cnc23)cccc1C1=CCCCC1	≤ 10
Cc1c(-c2ccccc2)cccc1-c1nc2c(s1)CNCC2	≤ 100
N#Cc1c(NC(=O)c2nc3c(s2)CNCC3)cccc1-c1ccccc1	≤ 100
Cc1c(-c2ccccc2)cccc1-c1nc2cc(CNCCO)c(OCCN3CCOCC3)cc2o1	≤ 10
Cc1c(-c2ccccc2)cccc1-c1nc2c(CCCC#N)cc(CNCCO)cn2n1	≤ 100
N#Cc1c(-c2ccc3c(c2)OCCO3)cccc1-c1nc2c(Cl)cc(CNCCO)cn2n1	≤ 100
O=C(Nc1cccc(-c2ccc3c(c2)OCCO3)c1Cl)c1nc2c(s1)CNCC2	≤ 100
Cc1c(NC(=O)c2nc3c(s2)CN(CC(=O)O)CC3)cccc1-c1ccccc1	≤ 100
N#Cc1c(-c2ccc3c(c2)OCCO3)cccc1-c1nc2c(s1)CNCC2	≤ 100
COc1cccc(-c2cccc(NC(=O)c3nc4c(n3C)CCNC4)c2C#N)c1F	≤ 100
COc1cccc(-c2cccc(NC(=O)c3nc4c(s3)CNCC4)c2C#N)c1	≤ 100
N#Cc1c(Nc2nccc3cc(CNCCO)cnc23)cccc1-c1ccccc1	≤ 10
N#Cc1c(-c2ccc3c(c2)OCCO3)cccc1-c1nc2c(C#N)cc(CNCCO)cn2n1	≤ 100
Cc1c(-c2ccccc2)cccc1-c1nc2c(o1)CCNC2	≤ 100
Cc1cc(C(=O)Nc2cc(F)cc(-c3ccc4c(c3)OCCO4)c2C)ncc1CNCCO	≤ 10
Cc1c(-c2ccccc2)cccc1-c1nc2cc(CNCCO)c(OCc3ccccn3)cc2o1	≤ 10
COc1cccc(-c2ccnc(-c3nc4c(s3)CNCC4)c2C)c1	≤ 100

Structure (SMILES)	IC50 [nM]
Cc1c(Nc2nccc3cc(CNCCO)cnc23)cccc1-c1ccc2c(c1)OCCO2	≤ 10
COc1cccc(-c2cccc(NC(=O)c3nc4c(s3)CNCC4)c2C)c1F	≤ 100
Cc1c(-c2ccc3c(c2)OCCO3)ccnc1-c1nc2c(s1)CNCC2	≤ 100
N#Cc1c(NC(=O)c2nc3c(s2)CNCC3)cccc1C1=CCCCC1	≤ 100
Cc1cc(CNCCO)cc2nc(-c3cccc(-c4ccc5c(c4)OCCO5)c3C#N)oc12	≤ 10
Cc1c(NC(=O)c2nc3c(s2)CNCC3)cccc1-c1ccccc1	≤ 100
Cc1c(-c2ccccc2)cccc1-c1nc2c(s1)CN(C)CC2	≤ 100
N#Cc1c(NC(=O)c2ccc(CNCCO)cn2)cccc1C1=CCCCC1	≤ 10
Cc1cc(CNCCO)cc2nc(-c3cccc(-c4ccccc4)c3C#N)oc12	≤ 10
COc1cccc(-c2cccc(NC(=O)c3nc4c(s3)CNCC4)c2C#N)c1F	≤ 100
Cc1c(-c2nc3c(s2)CNCC3)cccc1-c1cccc2c1cnn2C	≤ 100
Cc1c(NC(=O)c2nc3c(s2)CNCC3)cccc1-c1cccc2c1cnn2C	≤ 100
Cc1c(-c2ccccc2)cccc1-c1nc2c(s1)CN(C[C@H](C)O)CC2	≤ 100
Cc1c(-c2ccccc2)cccc1-c1nc2ccc(CNCCO)cn2n1	≤ 100
COc1cccc(-c2cccc(NC(=O)c3nc4c(n3C)CCNC4)c2C)c1F	≤ 100
N#Cc1c(NC(=O)c2nc3c(s2)CNCC3)cccc1-c1ccc2c(c1)OCCO2	≤ 100
Cc1c(-c2ccccc2)cccc1-c1nc2c(o1)CCN(C)C2	≤ 100
Cc1c(-c2ccccc2)cccc1-c1nc2cc(CNCCO)cc(C)c2o1	≤ 10
Cc1c(NC(=O)c2nc3c(s2)CNCC3)cccc1-c1cccc2[nH]ncc12	≤ 100
Cn1ncc2c(-c3cccc(NC(=O)c4nc5c(s4)CNCC5)c3Cl)cccc21	≤ 100
Cn1cnc2c(-c3cccc(NC(=O)c4ccc(CNCCO)cn4)c3C#N)cccc21	≤ 10

Molecular target: Programmed cell death protein 1 (Homo sapiens, UniProt Q15116)
Sequence (Q15116 whole entry): as the sequence (Q15116 whole entry) above
Assay: Binding affinity to human PD-1 assessed as dissociation constant by SPR assay

Structure (SMILES)	Kd [nM]
O=C(O)[C@@H](CO)NCc1cc(Cl)c(OCc2cccc(-c3ccccc3)c2Br)cc1OCc1ccc2nonc2c1	3.34
